In ChEMBL document CHEMBL1148880, “Development of piperazine-tethered heterodimers as potent antimalarials against chloroquine-resistant P. falciparum strains. Synthesis and molecular modeling” (Bioorg Med Chem Lett, 2007) one finds IC50 data, which are given here for nine compounds.

SMILES strings stand for the structures. pIC50: −log10 of the molar value.

Broadly, the pIC50 is the negative decadic logarithm of the IC50, by convention in mol/L. A high value points to a small IC50.

What all share (assay type): functional, organism-based
In experiment [1] the test system is Plasmodium falciparum. The experiment can be described thus: Antiplasmodial activity against chloroquine-sensitive Plasmodium falciparum D10.
In experiment [2] the test system is Plasmodium falciparum. The experiment can be described thus: Antiplasmodial activity against chloroquine-resistant Plasmodium falciparum W2.
In experiment [3] the test system is Plasmodium falciparum. The experiment can be described thus: Antiplasmodial activity against chloroquine-sensitive Plasmodium falciparum 3D7.
Experiment [4] concerns Plasmodium falciparum. In words: Antiplasmodial activity against chloroquine-resistant Plasmodium falciparum K1.

For the compound `CCN(CC)CCCC(C)NC1CC=Nc2cc(Cl)ccc21` (stereo not drawn), the pIC50 in experiment [1] is 4.66; in experiment [2] it was 3.55; in experiment [3], 5.00; in experiment [4], 3.59.
Regarding `Clc1ccc2/c(=N/CCCN3CCN(CCCNCc4ccc(CN5CCCC5)cc4)CC3)cc[nH]c2c1`, the figures for the negative logarithm of the IC50 (pIC50) in experiment [1] and in experiment [2] were 3.59 and 3.68, respectively.
In the case of `O=C(NCCCN1CCN(CCC/N=c2\cc[nH]c3cc(Cl)ccc23)CC1)C(c1cccc(Cl)c1)n1ccnc1` (stereo not drawn), the pIC50 in experiment [1] was 3.66; in experiment [2], 3.27; in experiment [3], 4.40; in experiment [4], 3.70.
Regarding `Clc1cccc(C(NCCCN2CCN(CCC/N=c3\cc[nH]c4cc(Cl)ccc34)CC2)c2ccc(CN3CCCC3)cc2)c1` (stereo not drawn), the figures for the pIC50 in experiment [1] and in experiment [2] were 3.18 and 3.31, respectively.
As to `Clc1ccc2/c(=N/CCCN3CCN(CCCNCC4N=CC=N4)CC3)cc[nH]c2c1`, the pIC50 in experiment [1] is 2.79; in experiment [2] it was 2.84.
Take `Clc1ccc2/c(=N/CCCN3CCN(CCCNc4nc5ccccc5[nH]4)CC3)cc[nH]c2c1`: the results for the pIC50 in experiment [1] and in experiment [2] were 3.39 and 3.27, respectively.
Consider `CS(=O)(=O)OC(c1ccc(CNCCCN2CCN(CCC/N=c3\cc[nH]c4cc(Cl)ccc34)CC2)cc1)c1cccc(Cl)c1` (stereo not drawn), for which the pIC50 in experiment [1] was 3.96; in experiment [2], 4.01; in experiment [3] it was 5.11; in experiment [4], 3.35.
The matching figures for `OC(c1ccc(CNCCCN2CCN(CCC/N=c3\cc[nH]c4cc(Cl)ccc34)CC2)cc1)c1cccc(Cl)c1` (stereo not drawn): 3.84, 3.57, 4.55 and 3.87.
As to `O=C(c1ccc(CNCCCN2CCN(CCC/N=c3\cc[nH]c4cc(Cl)ccc34)CC2)cc1)c1cccc(Cl)c1`, the pIC50 in experiment [1] is 4.59; in experiment [2], 4.48; in experiment [3], 5.80; in experiment [4], 4.80.
